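Where inhibition never reached the appropriate level, the endpoint shown equals the highest concentration tested. Otherwise, values were interpolated linearly from a five-concentration, 48-hour dose response in 96-well plates. Abbreviation: GI50, concentration required for 50% inhibition of growth.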 The source made the active and inactive calls. No stated cut-off is given here; in the data, active = GI50 up to about 1.1 µM and inactive = higher.
What was measured:
Assay in all cases: inhibition of tumour cell growth, NCI panel, 48 h
[1] = system: SN12C
[2] = system: TK-10
[3] = system: A498
[4] = system: HOP-62
[5] = system: 786-0
[6] = system: NCI-H226
[7] = system: OVCAR-4
[8] = system: KM12
[9] = system: HCT-116
[10] = system: CAKI-1
[11] = system: SNB-75
[12] = system: HL-60
[13] = system: EKVX
[14] = system: MOLT-4
[15] = system: UACC-62
[16] = system: HCT-15
[17] = system: SK-MEL-28
[18] = system: MDA-N
[19] = system: MDA-MB-435
[20] = system: T47D

| SMILES | GI50 [1] | GI50 [2] | GI50 [3] | GI50 [4] | GI50 [5] | GI50 [6] | GI50 [7] | GI50 [8] | GI50 [9] | GI50 [10] | GI50 [11] | GI50 [12] | GI50 [13] | GI50 [14] | GI50 [15] | GI50 [16] [µM] | GI50 [17] | GI50 [18] | GI50 [19] | GI50 [20] |
| --- | --- | --- | --- | --- | --- | --- | --- | --- | --- | --- | --- | --- | --- | --- | --- | --- | --- | --- | --- | --- |
| O=C(C(=O)c1cc2ccccc2[nH]1)c1cc2ccccc2[nH]1 | 237 µM (inactive) | > 347 µM (inactive) | > 347 µM (inactive) | > 183 µM (inactive) | > 284 µM (inactive) | > 347 µM (inactive) | 58.3 µM (inactive) | > 347 µM (inactive) | 98.6 µM (inactive) | 234 µM (inactive) | > 347 µM (inactive) | 195 µM (inactive) | > 347 µM (inactive) | 24 µM (inactive) | > 347 µM (inactive) | 94.2 | 149 µM (inactive) | – | – | – |
| C=C(Cl)C(C)(Cl)CCC(Cl)C(C)C (configuration not stated) | > 100 µM (inactive) | > 100 µM (inactive) | > 100 µM (inactive) | > 100 µM (inactive) | > 100 µM (inactive) | > 100 µM (inactive) | > 100 µM (inactive) | > 100 µM (inactive) | > 100 µM (inactive) | > 100 µM (inactive) | 24.6 µM (inactive) | 44.3 µM (inactive) | > 100 µM (inactive) | 36.7 µM (inactive) | > 100 µM (inactive) | – | > 100 µM (inactive) | 43.2 µM (inactive) | > 100 µM (inactive) | – |
| C[C@]12CCC(=O)C(O)=C1CC[C@@H]1C2CC[C@]2(C)Nc3c(cnn3-c3ccccc3)CC12 (some centres not stated) | – | > 100 µM (inactive) | > 100 µM (inactive) | > 100 µM (inactive) | > 100 µM (inactive) | 64.3 µM (inactive) | 96.2 µM (inactive) | 31.7 µM (inactive) | 28.2 µM (inactive) | 56.9 µM (inactive) | > 100 µM (inactive) | 23.8 µM (inactive) | > 100 µM (inactive) | 32.6 µM (inactive) | 77.6 µM (inactive) | 49.9 | > 100 µM (inactive) | – | – | – |
| O=C(O)CCC(=O)N1c2ccccc2CC1c1c[nH]c2ccccc12 (configuration not stated) | > 100 µM (inactive) | > 100 µM (inactive) | > 100 µM (inactive) | > 100 µM (inactive) | > 100 µM (inactive) | > 100 µM (inactive) | > 100 µM (inactive) | 65.6 µM (inactive) | > 100 µM (inactive) | > 100 µM (inactive) | > 100 µM (inactive) | > 100 µM (inactive) | > 100 µM (inactive) | > 100 µM (inactive) | > 100 µM (inactive) | > 100 | > 100 µM (inactive) | – | – | – |
| COc1ccc(O)cc1C(O)c1ccccc1 (configuration not stated) | > 100 µM (inactive) | > 100 µM (inactive) | > 100 µM (inactive) | > 100 µM (inactive) | > 100 µM (inactive) | > 100 µM (inactive) | > 100 µM (inactive) | > 100 µM (inactive) | > 100 µM (inactive) | > 100 µM (inactive) | > 100 µM (inactive) | > 100 µM (inactive) | > 100 µM (inactive) | > 100 µM (inactive) | > 100 µM (inactive) | > 100 | > 100 µM (inactive) | – | – | – |
| Brc1cccc(/C=N/C23CC4CC(CC(C4)C2)C3)c1 | > 100 µM (inactive) | > 100 µM (inactive) | > 100 µM (inactive) | > 100 µM (inactive) | > 100 µM (inactive) | > 100 µM (inactive) | > 100 µM (inactive) | > 100 µM (inactive) | > 100 µM (inactive) | > 100 µM (inactive) | > 100 µM (inactive) | > 100 µM (inactive) | > 100 µM (inactive) | > 100 µM (inactive) | > 100 µM (inactive) | > 100 | > 100 µM (inactive) | – | – | – |
| CS(=O)(=O)Nc1ccc(Nc2ccnc3ccc4[nH]ccc4c23)cc1 | 7.96 µM (inactive) | 30.2 µM (inactive) | 18.5 µM (inactive) | 13.9 µM (inactive) | 9.64 µM (inactive) | 8.49 µM (inactive) | 7.83 µM (inactive) | 11.6 µM (inactive) | 5.5 µM (inactive) | 27.7 µM (inactive) | – | 21.4 µM (inactive) | 24.8 µM (inactive) | 3.13 µM (inactive) | 14.3 µM (inactive) | 46 | 15.8 µM (inactive) | – | 15.1 µM (inactive) | 3.77 µM (inactive) |
| CCCCCCCCCCCCCCCCCc1cccc(OCOCCOC)c1CO | – | > 100 µM (inactive) | > 100 µM (inactive) | > 100 µM (inactive) | > 100 µM (inactive) | > 100 µM (inactive) | > 100 µM (inactive) | > 100 µM (inactive) | > 100 µM (inactive) | > 100 µM (inactive) | > 100 µM (inactive) | > 100 µM (inactive) | > 100 µM (inactive) | > 100 µM (inactive) | > 100 µM (inactive) | > 100 | > 100 µM (inactive) | – | > 100 µM (inactive) | – |

Reference: ChEMBL document CHEMBL1201862, “PubChem BioAssay data set” (2004)
